This note sets out measurements from US7709511B2, “Benzothiazolone derivatives” (AstraZeneca AB, priority 2005, dated 2010).

Test [1] addresses T1, Adrenergic β2 (Homo sapiens, UniProt P07550).
T1 construct: endogenous in cells; host or cells: H292 cells
Kind of test: Alternative adrenergic β2 mediated cAMP production in H292 cells (AlphaScreen cAMP detection). The format is cell-based. The note with it: for EC50: cAMP, test compounds incubated 60 minutes at room temperature, 300 μM rolipram, read-out: β2 pEC50 (converted); for β2 Int Act: fraction relative to the maximum activity determined for formoterol, 60 minutes incubation. A general note: cAMP levels reflect the balance of adenylyl cyclase and phosphodiesterase activity.

Test [2] addresses T2, recombinant human adrenergic beta 1 receptors (Homo sapiens, UniProt P08588).
T2 construct: purchased Euroscreen
The test is described as follows: Adrenergic β1 selectivity assay, inhibition of [125I]-Iodocyanopindolol binding to membranes. Conditions: [125I]-Iodocyanopindolol 0.036 nM; read-out: β1 bind p IC50 (converted). The method, then: Membranes containing recombinant human adrenergic beta 1 receptors were obtained from Euroscreen. These were diluted in Assay Buffer (50 mM HEPES, 1 mM EDTA, 120 mM NaCl, 0.1% gelatin, pH 7.4) to provide a final concentration of membranes that gave a clear window between maximum and minimum specific binding.
Assays were performed in U-bottomed 96-well polypropylene plates. 10 μL [^125I]-Iodocyanopindolol (0.036 nM final concentration) and 10 μL of test compound (10× final concentration) were added to each test well. For each assay plate 8 replicates were obtained for [^125I]-Iodocyanopindolol binding in the presence of 10 μL vehicle (10% (v/v) DMSO in Assay Buffer; defining maximum binding) or 10 μL Propranolol (10 μM final concentration; defining non-specific binding (NSB)). Membranes were then added to achieve a final volume of 100 μL. […] Five washes with 250 μL wash buffer (50 mM HEPES, 1 mM EDTA, 120 mM NaCl, pH 7.4) were performed at 4° C. to remove unbound radioactivity. […] The plates were sealed (TopSeal A) and filter-bound radioactivity was measured with a scintillation counter (TopCount, Packard BioScience) using a 3-minute counting protocol.
Total specific binding (B0) was determined by subtracting the mean NSB from the mean maximum binding. […]

Counter-ions that a name gives are not always drawn.

T1 sequence (P07550 whole entry): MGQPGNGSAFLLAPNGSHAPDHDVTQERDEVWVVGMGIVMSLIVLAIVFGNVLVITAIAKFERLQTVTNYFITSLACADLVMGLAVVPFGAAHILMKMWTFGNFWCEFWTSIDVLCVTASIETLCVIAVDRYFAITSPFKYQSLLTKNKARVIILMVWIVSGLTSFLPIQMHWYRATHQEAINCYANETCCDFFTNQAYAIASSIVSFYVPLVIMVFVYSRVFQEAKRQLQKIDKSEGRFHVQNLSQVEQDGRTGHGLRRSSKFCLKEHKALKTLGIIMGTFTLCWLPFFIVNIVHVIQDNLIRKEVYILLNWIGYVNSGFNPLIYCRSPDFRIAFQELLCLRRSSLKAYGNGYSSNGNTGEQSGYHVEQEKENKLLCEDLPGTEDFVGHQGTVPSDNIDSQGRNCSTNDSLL
T2 sequence (P08588 whole entry): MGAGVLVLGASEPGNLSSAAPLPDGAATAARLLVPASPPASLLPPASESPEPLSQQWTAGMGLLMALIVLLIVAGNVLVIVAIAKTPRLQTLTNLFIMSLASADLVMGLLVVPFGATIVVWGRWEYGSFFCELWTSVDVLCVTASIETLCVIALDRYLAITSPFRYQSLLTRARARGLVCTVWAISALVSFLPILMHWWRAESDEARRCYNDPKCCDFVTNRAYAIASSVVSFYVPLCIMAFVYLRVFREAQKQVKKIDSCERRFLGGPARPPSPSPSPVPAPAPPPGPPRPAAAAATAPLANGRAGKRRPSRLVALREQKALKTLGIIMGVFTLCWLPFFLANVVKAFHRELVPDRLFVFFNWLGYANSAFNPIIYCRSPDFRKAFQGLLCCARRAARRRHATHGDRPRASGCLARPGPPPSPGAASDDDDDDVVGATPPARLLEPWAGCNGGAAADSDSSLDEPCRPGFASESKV

As to `CCN(CC)CCN(CCNCCc1ccc(O)c2[nH]c(=O)sc12)C(=O)CCOCCc1ccc(Cl)cc1` [Example 26, 3-[2-(4-Chlorophenyl)ethoxy]-N-(2-diethylaminoethyl)-N-{2-[2-(4-hydroxy-2-oxo-2,3-dihydro-1,3-benzothiazol-7-yl)ethylamino]ethyl}propanamide dihydrobromide], in test [1], the EC50 was 0.0158 µM and the “β2 Int Act” value came out at 0.6. For the same molecule, in test [2], the IC50 was 1 µM.

As for `CCN(CC)CCN(CCNCCc1ccc(O)c2[nH]c(=O)sc12)C(=O)CCOCCc1cccc(C)c1` [Example 28, N-[2-(Diethylamino)ethyl]-N-(2-{[2-(4-hydroxy-2-oxo-2,3-dihydro-1,3-benzothiazol-7-yl)ethyl]amino}ethyl)-3-[2-(3-methylphenyl)ethoxy]propanamide], in test [1], the EC50 was 0.00316 µM and the “β2 Int Act” value is listed as 0.6. For the same molecule, the IC50 in test [2] is 1 µM.

In general, IC50 refers to the concentration that inhibits the measured activity by half.
